Assay results published in paper PMC5008829, “Computational Analysis of the Ligand Binding Site of the Extracellular ATP Receptor, DORN1” (PLoS ONE, 2016).

Columns and labels:
Assay in all cases: radioligand saturation binding, Sephadex G-25 gel filtration
[1] = target: T1, DORN1 WT (LEC), lectin domain only (Arabidopsis thaliana, UniProt Q9LSR8); conditions: [γ-32P]ATP labelled compound; 10 mM HEPES pH 7.5, 5 mM MgCl2, on ice 30 min
T1 construct: gene LECRK19; L-type lectin domain only, recombinant from E. coli (GST fusion likely)
T1 sequence (Q9LSR8 22-257 limits assumed): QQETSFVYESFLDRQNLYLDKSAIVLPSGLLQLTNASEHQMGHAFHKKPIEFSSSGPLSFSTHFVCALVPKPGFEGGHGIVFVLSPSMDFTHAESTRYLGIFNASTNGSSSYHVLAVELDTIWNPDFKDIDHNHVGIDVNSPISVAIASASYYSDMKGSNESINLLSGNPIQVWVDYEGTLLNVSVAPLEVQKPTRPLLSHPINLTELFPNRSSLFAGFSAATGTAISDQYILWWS
Description: radioligand saturation binding, Sephadex G-25 gel filtration on DORN1 WT (LEC), lectin domain only | WT (LEC): lectin domain only, WT (ECD): extracellular domain

[2] = target: T2, DORN1 WT (ECD), extracellular domain (Arabidopsis thaliana, UniProt Q9LSR8)
T2 construct: gene LECRK19; extracellular domain, signal peptide removed, pGEX-5X N-terminal GST fusion, E. coli BL21-AI, glutathione Sepharose; primers encode QETSFVY...APHKKVST
T2 sequence (Q9LSR8 23-288): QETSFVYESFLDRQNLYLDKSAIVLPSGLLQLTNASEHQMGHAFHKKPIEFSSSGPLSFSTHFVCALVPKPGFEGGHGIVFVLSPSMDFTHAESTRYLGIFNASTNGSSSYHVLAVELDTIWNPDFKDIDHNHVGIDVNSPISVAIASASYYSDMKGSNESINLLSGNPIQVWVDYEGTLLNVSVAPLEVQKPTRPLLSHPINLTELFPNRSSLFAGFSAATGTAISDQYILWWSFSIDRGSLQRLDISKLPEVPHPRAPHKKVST

[3] = target: T3, DORN1 WT (ECD), extracellular domain (Arabidopsis thaliana, UniProt Q9LSR8, DEL141-146)
T3 construct: gene LECRK19; extracellular domain, signal peptide removed, pGEX-5X N-terminal GST fusion, E. coli BL21-AI, glutathione Sepharose; primers encode QETSFVY...APHKKVST
T3 sequence (Q9LSR8 with tags, fused parts or gaps DEL141-146): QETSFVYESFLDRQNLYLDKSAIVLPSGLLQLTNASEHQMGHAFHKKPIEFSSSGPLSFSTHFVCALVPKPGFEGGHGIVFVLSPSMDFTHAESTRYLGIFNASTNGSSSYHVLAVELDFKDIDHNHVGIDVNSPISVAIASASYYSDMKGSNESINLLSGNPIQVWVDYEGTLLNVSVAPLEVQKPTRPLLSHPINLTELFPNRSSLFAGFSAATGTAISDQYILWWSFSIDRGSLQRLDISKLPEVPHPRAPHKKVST

[4] = target: T4, DORN1 WT (ECD), extracellular domain (Arabidopsis thaliana, UniProt Q9LSR8, DEL116-118)
T4 construct: gene LECRK19; extracellular domain, signal peptide removed, pGEX-5X N-terminal GST fusion, E. coli BL21-AI, glutathione Sepharose; primers encode QETSFVY...APHKKVST
T4 sequence (Q9LSR8 with tags, fused parts or gaps DEL116-118): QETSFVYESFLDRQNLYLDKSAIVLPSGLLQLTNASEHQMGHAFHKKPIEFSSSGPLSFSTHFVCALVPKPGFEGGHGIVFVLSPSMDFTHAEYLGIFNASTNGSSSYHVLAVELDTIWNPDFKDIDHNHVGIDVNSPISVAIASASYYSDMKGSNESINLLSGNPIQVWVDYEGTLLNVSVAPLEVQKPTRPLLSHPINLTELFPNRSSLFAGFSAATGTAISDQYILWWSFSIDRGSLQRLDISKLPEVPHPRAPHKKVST

Kd [1]: 52.6 nM
Kd [2]: 38.3 nM
Kd [3]: 190 nM
Kd [4]: 534 nM
SMILES: Nc1ncnc2c1ncn2[C@@H]1O[C@H](COP(=O)(O)OP(=O)(O)OP(=O)(O)O)[C@@H](O)[C@H]1O [ATP]
